Measurements: patent EP0623616A1, “Heterocyclic compounds and process for the preparation thereof” (EGIS GYOGYSZERGYAR RT., priority 1993, dated 1994)
Like-named read-outs stand apart in the source and are kept apart here.

Tests used:
Male Wistar rats [1] = test: Conditioned avoidance response inhibition (shuttle box); type: in vivo; conditions: for Conditioned relfex ID50: rats, 50% inhibiting dose, dosing one hour before the measurement, oral
Method: The antipsychotic (neuroleptic) effect was measured by the inhibition of the learned conditioned avoidance reflex. The male Wistar rats used for the study were of 120 to 150 g body weight at the beginning of learning. A shuttle box was used as experimental device, it consisted of two parts, 24x24,5x23 cm each, separated by a wall with a 6x9 cm gate. In response to a suitable warning stimulus, in order to avoid the punishing (unconditioned) stimulus, animals within the box passed through the gate from one part to the other. The warning, i.e. conditioned stimulus (CS), a white light (1 Hz) blinking for 15 seconds, was applied at the actual place of the animal. The unconditioned stimulus (US), in form of 0,6 mA intensity electric shock, was randomly applied to the paw during the last 5 seconds of the conditioned stimulus. The animal's movement during the CS and US from one part of the box to the other was defined as avoidance and escape response, respectively. Both responses ceased the actual stimulus and stopped the trial. The time elapsed until the next trial (intertrial interval, ITI) was 15 seconds. While one experiment was carried out daily, an experiment consisted of 80 trials. Learning efficiency was expresses as percentage of the successful to the total avoidances. Effect of the neuroleptic drugs was examined in animals with stabilized conditioned reflexes and with at least 75% learning efficiency. Dosing was carried out once a week, one hour before the measurement in the shuttle box. To calculate the neuroleptic effect (50% inhibiting dose, ID₅₀), the results obtained after the treatment were compared to those obtained on the previous day (controls).

Male Wistar rats [2] = test: Vogel test (drinking conflict test); type: in vivo; conditions: for MED: minimum effective dose, increase of tolerated shocks, rats, intraperitoneally half an hour before testing
Method: Male Wistar rats of 160 to 180 g body weight were kept free of food and drinking water for 24 and 48 hours, respectively. Test and carrier substances were administered intraperitoneally half an hour before testing. Animals within the experimental chamber were provided with drinking water through an inserted tube. After the animals' each twenty lapping for water the device emitted a 2 mA intensity electric shock through the drinking tube. During 5 minutes the shocks tolerated by the animals in order to quench their thirst were counted. The effect of treatment was expressed as the % increase of the tolerated shocks. The minimum effective dose (MED) was determined for each test compound [Vogel, J.R., Beer, B., Clody, D.E.:Psychopharmacologia (Berl.)21, 1(1971)].

[3] = test system: Male rats belonging to the Spraghe Dawley strain; test: Elevated plus maze test on rat; type: in vivo; conditions: for MED: p.o., minimum effective dose causing a significant increase of time spent on the open arms, rats, pretreatment 60 minutes
Method: The test was carried out with the aid of a wooden plus-shaped maze elevated to a height of 50 cm. Two arms (100 cm long and 15 cm wide) - opposite to one another - were enclosed up to a height of 40 cm along their longer sides and at the end. The other two arms were without walls (open arms). The central 15x15 cm part was open. Male rats belonging to the Spraghe Dawley strain and weighing 220 to 260 g were used as test animals. After pretreatment lasting 60 minutes the animals were placed into the central part of the maze. During the 5 minutes observation period the following parameters were recorded: • time spent on the open arms • time spent on the closed arms • number of open arm entries • number of closed arm entries.
The drug effect was expressed as percent increase of the time spent on the open arms and number of open arm entries. The minimum effective dose which caused a significant increase of the time spent on the open arms was calculated for every substance [Pelow, S., Chopin, P., File, S.E., Briley, M.:J. Neurosci. Methods 14, 149-167 (1985)].

mice [4] = test: Effect on the spontaneous motor activity (method of Borsy et al., 10-channel Dews system); type: in vivo; conditions: for Mobility inhibition ID50: treated orally, 1 hour after treatment, interruptions of infrared beam within 30 minutes
Method: The test was carried out according to the method of Borsy et al. Groups consisting of 3 mice each were treated orally with different doses of the compounds to be tested 1 hour after treatment with the test compound or the vehicle the animals were placed into a 10-channel Dews system equipment. In this equipment the number of interruptions of infrared beam within 30 minutes was counted. From these date 50% inhibiting doses (IC₅₀) were determined with the aid of a line of regression [Borsy, J., Csanyi, E., Lazar, I.: Arch. Int. Pharmacodyn. 124, a (1960)].

Male Wistar rats [5] = conditions: value taken from literature (J. Med. Chem. 29(3), 363(1986); Drugs of Future 10(II), 731(1985)); cited from earlier work
mice [6] = conditions: value taken from literature (Drugs of Future 10(II), 731 (1985)); cited from earlier work
[7] = Vogel test, ratio of MED values

| Compound | Conditioned relfex ID50 (Male Wistar rats [1]) | MED (Male Wistar rats [2]) | MED [3] | Mobility inhibition ID50 (mice [4]) | also measured |
| --- | --- | --- | --- | --- | --- |
| 8-{4-[4-(1,2-Benzisothiazol-3-yl)-1-piperazinyl]-but-2-ynyl}-8-azaspiro[4,5]decane-7,9-dione [Example 1] | 30,0 mg/kg | 5.0 mg/kg | 2,5 mg/kg | ineffective(>100) mg/kg | influence on the conditioned avoidance response (Male Wistar rats [1]; up to an oral dose of 30 mg/kg, result in words): does not influence the conditioned avoidance response; effectiveness relative to chlorodiazepoxide (Male Wistar rats [2]; [7]): twice as effective; times as effective as Meprobamate (Male Wistar rats [2]; [7]): 5; effectiveness relative to Ritanserin ([3]; elevated plus maze, ratio of MED values): twice as effective; influence on the spontaneous motor activity (mice [4]; result in words): does not influence the spontaneous motor activity |
| CNC1=Nc2ccc(Cl)cc2C(c2ccccc2)=[N+]([O-])C1 [Chlorodiazepoxide] | – | 10.0 mg/kg | – | 56,0 mg/kg | – |
| CN(C)CCCN1c2ccccc2Sc2ccc(Cl)cc21 [Chloropromazine] | 13,2 mg/kg | – | – | – | – |
| CN1C(=O)CN=C(c2ccccc2)c2cc(Cl)ccc21 [Diazepam] | – | – | – | 23,0 mg/kg | – |
| O=C(CCCN1CCC(O)(c2ccc(Cl)cc2)CC1)c1ccc(F)cc1 [Haloperidol] | 0,6 mg/kg | – | – | – | – |
| CCCC(C)(COC(N)=O)COC(N)=O [Meprobamate] | – | 25.0 mg/kg | >10,0 mg/kg | – | – |
| Cc1nc2sccn2c(=O)c1CCN1CCC(=C(c2ccc(F)cc2)c2ccc(F)cc2)CC1 [Ritanserin] | – | – | 5,0 mg/kg | – | – |
| O=C1CC2(CCCC2)CC(=O)N1CCCCN1CCN(c2nsc3ccccc23)CC1 [Thiaspiron, thiaspiron] | – | – | – | – | Conditioned relfex ID50 (Male Wistar rats [5]): 10,5 mg/kg; Mobility inhibition ID50 (mice [6]): 8,4 mg/kg |
